Measurements published in ChEMBL document CHEMBL4033658, “Design and expeditious synthesis of organosilanes as potent antivirals targeting multidrug-resistant influenza A viruses” (Eur J Med Chem, 2017).

tested on: Influenza A virus; experiment: Inhibition of Influenza A virus AM2-S31N mutant proton channel expressed in Xenopus laevis frog oocytes at 100 uM after 2 mins by electrophysiological two-electrode voltage clamp assay; assay type: cell-based

Point of comparison: `C[Si](C)(c1ccccc1)c1ccc(CNC23CC4CC(CC(O)(C4)C2)C3)cc1`, inhibition 84.9%. Against it:
- CC(C)(C)c1ccc(CNC23CC4CC(CC(O)(C4)C2)C3)cc1 — lower, 75.4%
- CC(C)[Si](c1ccc(CNC23CC4CC(CC(O)(C4)C2)C3)cc1)(C(C)C)C(C)C — lower, 33.6%
- C[Si](C)(C)c1ccc(CNC23CC4CC(CC(C4)C2)C3)cc1 — lower, 77.5%
- CC(C)(C)c1ccc(CNC23CC4CC(CC(C4)C2)C3)cc1 — lower, 72.6%
- C[Si](C)(C)c1ccc(CNC23CC4CC(CC(O)(C4)C2)C3)cc1 — higher, 86.7%
- C[Si](C)(C)c1ccc(CNC23CC4CC(CC(C4)C2)C3)nc1 — lower, 81.3%
